Test results as given in patent US11793845B2, “Composition for ameliorating peripheral sensory neuropathy” (KINKI UNIVERSITY, priority 2016, dated 2023).

Key:
[1] = tested on: Peripheral Sensory Neuropathy Induced by Paclitaxel in Mice; test: von Frey test, paclitaxel-induced peripheral sensory neuropathy; assay type: in vivo; settings: paclitaxel 6 mg/kg once a week alone, compared with control group; three days after the administration
Excerpt: The mice in the three groups in the above (1) were put in a cage and a filament having a strength of 0.16 g was pressed on the plantar surface of the leg to measure the number of times (a score) of avoidance response.
Male Balb/c mice of 6 to 7 weeks old were used as in Example 1. The mice were divided into three groups: a control group, a paclitaxel administration group, and a paclitaxel and Lentinus edodes mycelium extract administration group (paclitaxel+Lentinus edodes mycelium extract administration group). Paclitaxel was administered to each mouse once a day at a dose of 6 mg/kg. Further, the Lentinus edodes mycelium extract was administered to each mouse once a day at a dose of 2 g/kg.
Further, the number of times of administration was set to once a week (on Day 0, Day 7, and Day 14) for paclitaxel and daily (from Day 0 to Day 15) for the Lentinus edodes mycelium extract in both the von Frey test and the cold plate test below.
Evaluation was performed in the same manner as in the test with oxaliplatin. Referring to FIG. 3, the horizontal axis indicates an elapsed time after administration (days) and the vertical axis indicates the avoidance response (scores). Open circles with a solid line represent the control group. Filled circles with a solid line represent the group in which only paclitaxel was administered. Open squares with a dash line represent the group in which paclitaxel and the Lentinus edodes mycelium extract were administered (paclitaxel+Lentinus edodes mycelium extract administration group). When the difference with the control group was determined to be significant using a significance level of 5%, the data were marked by “*”.
In the present test, the mice were divided into six groups by a difference in test objects. As in Example 1, male Balb/c mice of 6 to 7 weeks old were used. […]

[2] = tested on: Peripheral Sensory Neuropathy Induced by Paclitaxel in Mice; test: cold plate test, paclitaxel-induced peripheral sensory neuropathy; assay type: in vivo; settings: paclitaxel 6 mg/kg alone; Day 3
Experimental: The effect of the Lentinus edodes mycelium extract on the paresthesia to cold stimulation was tested by performing the cold plate test. The mice in the three groups in the above (1) were put on a cold plate set to 10° C. and a response time for avoidance (a latency) was measured. The shorter latency means that the mouse avoids the cold stimulation of the cold plate more.
In the present test, the mice were divided into four groups by a difference in test objects. As in Example 1, male Balb/c mice of 6 to 7 weeks old were used. The mice were divided into a total of four groups, a control group, a paclitaxel administration group, and two different paclitaxel and Lentinus edodes mycelium extract administration groups (paclitaxel+Lentinus edodes mycelium extract administration groups). […] Further, a group in which the Lentinus edodes mycelium extract was administered to each mouse once a day at a dose of 1 g/kg (hereinafter referred to as “1 g/kg administration group”) and a group in which the Lentinus edodes mycelium extract was administered to each mouse once a day at a dose of 2 g/kg (hereinafter referred to as “2 g/kg administration group”) were prepared.
Evaluation was performed in the same manner as in the test with oxaliplatin. Referring to FIG. 4, the horizontal axis indicates the elapsed time after administration (days) and the vertical axis indicates the avoidance response time (seconds). Open circles with a solid line represent the control group. Filled circles with a solid line represent the group in which only paclitaxel was administered. Open squares with a dash line and filled squares with a dash line represent the groups in which paclitaxel and the Lentinus edodes mycelium extract were administered at the same time (paclitaxel+Lentinus edodes mycelium extract administration groups). […] When the difference with the control group was determined to be significant using a significance level of 5%, the data were marked by “*”. […]

avoidance response (scores), von Frey test [1]: significantly increased | latency to the cold stimulation (avoidance response time), cold plate test [2]: significantly reduced
SMILES: CC(=O)O[C@H]1C(=O)[C@@]2(C)[C@H]([C@H](OC(=O)c3ccccc3)[C@]3(O)C[C@H](OC(=O)[C@H](O)[C@@H](NC(=O)c4ccccc4)c4ccccc4)C(C)=C1C3(C)C)[C@]1(OC(C)=O)CO[C@@H]1C[C@@H]2O [paclitaxel]
